Assay results published in the NIST ThermoML archive (doi:10.1021/acs.jced.8b00921).

Experiment: xn = mol fraction of the nth substance listed
Details: Gas, isochoric method

F/C=C(\F)C(F)(F)F [(Z)-1,2,3,3,3-pentafluoro-1-propene] + CC(C)C
Details | specific volume [m3/kg]
303.15 K, 207 kPa, x2 = 0.504 | 0.1216
308.15 K, 210.7 kPa, x2 = 0.504 | 0.1216
308.15 K, 303.6 kPa, x2 = 0.797 | 0.1074
308.15 K, 309.8 kPa, x2 = 0.345 | 0.0717
308.15 K, 316 kPa, x2 = 0.175 | 0.0632
308.15 K, 394.7 kPa, x2 = 0.916 | 0.0901
308.15 K, 410.6 kPa, x2 = 0.477 | 0.0585
313.15 K, 214.4 kPa, x2 = 0.504 | 0.1216
313.15 K, 309.3 kPa, x2 = 0.797 | 0.1074
313.15 K, 315.5 kPa, x2 = 0.345 | 0.0717
313.15 K, 321.9 kPa, x2 = 0.175 | 0.0632
313.15 K, 402.8 kPa, x2 = 0.916 | 0.0901
313.15 K, 418.8 kPa, x2 = 0.477 | 0.0585
318.15 K, 218 kPa, x2 = 0.504 | 0.1217
318.15 K, 315 kPa, x2 = 0.797 | 0.1074
318.15 K, 321.3 kPa, x2 = 0.345 | 0.0717
318.15 K, 327.8 kPa, x2 = 0.175 | 0.0633
318.15 K, 410.7 kPa, x2 = 0.916 | 0.0901
318.15 K, 426.9 kPa, x2 = 0.477 | 0.0585
323.15 K, 221.7 kPa, x2 = 0.504 | 0.1217
323.15 K, 320.6 kPa, x2 = 0.797 | 0.1074
323.15 K, 327 kPa, x2 = 0.345 | 0.0717
323.15 K, 333.7 kPa, x2 = 0.175 | 0.0633
323.15 K, 418.5 kPa, x2 = 0.916 | 0.0901
323.15 K, 434.9 kPa, x2 = 0.477 | 0.0585
328.15 K, 225.3 kPa, x2 = 0.504 | 0.1217
328.15 K, 326.2 kPa, x2 = 0.797 | 0.1075
328.15 K, 332.9 kPa, x2 = 0.345 | 0.0718
328.15 K, 339.5 kPa, x2 = 0.175 | 0.0633
328.15 K, 426.4 kPa, x2 = 0.916 | 0.0902
328.15 K, 442.8 kPa, x2 = 0.477 | 0.0586
333.15 K, 229 kPa, x2 = 0.504 | 0.1217
333.15 K, 331.8 kPa, x2 = 0.797 | 0.1075
333.15 K, 338.6 kPa, x2 = 0.345 | 0.0718
333.15 K, 346.4 kPa, x2 = 0.175 | 0.0633
333.15 K, 434 kPa, x2 = 0.916 | 0.0902
333.15 K, 450.8 kPa, x2 = 0.477 | 0.0586
338.15 K, 232.6 kPa, x2 = 0.504 | 0.1218
338.15 K, 337.4 kPa, x2 = 0.797 | 0.1075
338.15 K, 344.2 kPa, x2 = 0.345 | 0.0718
338.15 K, 351.2 kPa, x2 = 0.175 | 0.0633
338.15 K, 441.7 kPa, x2 = 0.916 | 0.0902
338.15 K, 458.7 kPa, x2 = 0.477 | 0.0586
343.15 K, 236.3 kPa, x2 = 0.504 | 0.1218
343.15 K, 342.9 kPa, x2 = 0.797 | 0.1075
343.15 K, 349.8 kPa, x2 = 0.345 | 0.0718
343.15 K, 357 kPa, x2 = 0.175 | 0.0633
343.15 K, 449.4 kPa, x2 = 0.916 | 0.0902
343.15 K, 466.6 kPa, x2 = 0.477 | 0.0586
348.15 K, 239.9 kPa, x2 = 0.504 | 0.1218
348.15 K, 348.5 kPa, x2 = 0.797 | 0.1076
348.15 K, 355.4 kPa, x2 = 0.345 | 0.0718
348.15 K, 362.8 kPa, x2 = 0.175 | 0.0633
348.15 K, 457 kPa, x2 = 0.916 | 0.0902
348.15 K, 474.5 kPa, x2 = 0.477 | 0.0586
353.15 K, 243.6 kPa, x2 = 0.504 | 0.1218
353.15 K, 354.1 kPa, x2 = 0.797 | 0.1076
353.15 K, 361 kPa, x2 = 0.345 | 0.0718
353.15 K, 368.6 kPa, x2 = 0.175 | 0.0634
353.15 K, 464.6 kPa, x2 = 0.916 | 0.0903
353.15 K, 482.3 kPa, x2 = 0.477 | 0.0586
358.15 K, 247.3 kPa, x2 = 0.504 | 0.1219
358.15 K, 359.6 kPa, x2 = 0.797 | 0.1076
358.15 K, 366.6 kPa, x2 = 0.345 | 0.0719
358.15 K, 374.3 kPa, x2 = 0.175 | 0.0634
358.15 K, 472.2 kPa, x2 = 0.916 | 0.0903
358.15 K, 490.2 kPa, x2 = 0.477 | 0.0586
363.15 K, 251 kPa, x2 = 0.504 | 0.1219
363.15 K, 365.1 kPa, x2 = 0.797 | 0.1076
363.15 K, 372.2 kPa, x2 = 0.345 | 0.0719
363.15 K, 380.1 kPa, x2 = 0.175 | 0.0634
363.15 K, 479.8 kPa, x2 = 0.916 | 0.0903
363.15 K, 497.9 kPa, x2 = 0.477 | 0.0586
368.15 K, 254.6 kPa, x2 = 0.504 | 0.1219
368.15 K, 370.4 kPa, x2 = 0.797 | 0.1077
368.15 K, 377.8 kPa, x2 = 0.345 | 0.0719
368.15 K, 385.9 kPa, x2 = 0.175 | 0.0634
368.15 K, 487.3 kPa, x2 = 0.916 | 0.0903
368.15 K, 505.7 kPa, x2 = 0.477 | 0.0587
373.15 K, 258.3 kPa, x2 = 0.504 | 0.122
373.15 K, 375.9 kPa, x2 = 0.797 | 0.1077
373.15 K, 383.4 kPa, x2 = 0.345 | 0.0719
373.15 K, 391.6 kPa, x2 = 0.175 | 0.0634
373.15 K, 494.9 kPa, x2 = 0.916 | 0.0903
373.15 K, 513.5 kPa, x2 = 0.477 | 0.0587
378.15 K, 262 kPa, x2 = 0.504 | 0.122
378.15 K, 381.6 kPa, x2 = 0.797 | 0.1077
378.15 K, 389 kPa, x2 = 0.345 | 0.0719
378.15 K, 397.3 kPa, x2 = 0.175 | 0.0634
378.15 K, 502.4 kPa, x2 = 0.916 | 0.0904
378.15 K, 521.3 kPa, x2 = 0.477 | 0.0587
383.15 K, 265.6 kPa, x2 = 0.504 | 0.122
383.15 K, 387 kPa, x2 = 0.797 | 0.1077
383.15 K, 394.6 kPa, x2 = 0.345 | 0.0719
383.15 K, 403.1 kPa, x2 = 0.175 | 0.0634
383.15 K, 509.9 kPa, x2 = 0.916 | 0.0904
383.15 K, 529 kPa, x2 = 0.477 | 0.0587
